Results: patent publication US20010049353A1, “Method of using secretin and compositions made therefrom for the treatment of autism and other neurological, behavioral and immunological disorders” (Repligen Corporation, priority 1998, published 2001)
No end group written: not given here.

Legend:
[1] = tested on: patient, a child with symptoms of autism; test: Daily transdermal secretin with DMSO in the same patient (Example 2); assay type: in vivo, human
Method: At the time of this treatment, the patient was […]. Secretin was administered transdermally using pharmaceutical grade dimethyl sulfoxide (DMSO) (generally 99.9% pure) available from Clinic Service Co., Box 2512, Hemet Calif. 92543. The secretin (Secretin-Ferring) was administered daily in a dosage of about 75 CU over a five day period (i.e., about 15 CU daily). For each treatment, about 4 drops of DMSO were placed onto the skin of the patient, about 15 CU of the crystalline secretin was placed onto the DMSO, and the composition was rubbed into the skin.

[2] = tested on: patient, a child with symptoms of autism; test: Intravenous secretin infusion in a child with symptoms of autism (Example 1); assay type: in vivo, human
Excerpt: The present invention will be better understood from the following examples which are given by way of illustration and not by way of limitation. The patient, the same in both examples, is a child with symptoms of autism.
The patient in the present examples developed normally […], with the exception of gastrointestinal problems (i.e., chronic diarrhea and constipation) which began at about six months. At about thirteen months, when whole milk was introduced into their diet, the patient began having reoccurring ear infections. At about fourteen months, the patient appeared to lose the ability to process language, first receptively (at about 14 months) then expressively (at about 16 months). The patient also experienced episodes of “shivers” that appeared to be intermittent seizures.
After consulting with numerous neurologists, pediatricians, child development specialists, audiologists, endocrinologists, allergists, and other medical professionals, no consistent diagnosis had been reached. […] The term autism is used herein for reference purposes only, and this invention is intended to apply to any number of pervasive developmental disorders as well as neurological and immunological disorders.
Further, the patient's secretin cells prior to receiving treatment, measured at a level of 9, are far below the normal limit in the range of 20-70.
When the patient was […], the secretin was administered by way of an infusion as part of an upper gastrointestinal endoscopy. The secretin was used in this diagnostic procedure at the request of the patient's parents, one of which is an inventor of the present invention. The secretin used in this procedure is known as Secretin-Ferring available from Ferring Laboratories, Inc., Suffern, New York (See Appendix A). The secretin was dissolved in a […] of sodium chloride and administered in a dosage of 2 clinical units (CU) per kilogram (kg) body weight by intravenous injection over one minute. […] The diagnostic tests performed on the patient during this procedure also indicated gastric inflammation. […] The following Table I summarizes the improvements observed in the patient within 3 weeks after the infusion of secretin.

[3] = tested on: abnormal opioid peptides in autistic children; conditions: autistic children that responded to casein free and gluten free diet; measured before and after infusion; cited from earlier work

In the case of “secretin (HSDGTFTSELSRLRDSARLQRLLQGLV; not fully specified; ends and bridges not checked; UniProt P63298 33-59, looked up) [polypeptide hormone secreted by the mucosa of the duodenum and upper jejunum; used as Secretin-Ferring from Ferring Laboratories]”, the language ([1]; transdermal with DMSO, about 15 CU daily, within about 6 months) is reported as “progressed to spontaneous and conversational language”, the “autistic behavioral symptoms on stopping the daily dose” value ([1]; when the daily dose of secretin is stopped) is reported as “the autistic behavioral symptoms return” and the “time at which the rate of progress appeared to decrease” value ([2]; after first infusion, behavioral improvements continued) is reported as “about 5 weeks”. The “SPECT scan perfusion of the right posterior parietal and right temporal lobes” value ([2]; after the treatment) was “improved”, the rubella titers ([2]; after the treatment, before: 5.8) was 2.3 and the “serotonin levels in blood” value ([2]; blood tests after the treatment) was “a rise in serotonin levels”. The pancreatic juice released ([2]; immediately after 2 CU/kg iv over one minute, usual rate 1-2 ml/min) was “approximately 10 ml/min”, the “result of second and third infusions” value ([2]; second infusion about 9 months after the first, third about three months after the second) was “achieved the same results” and the spinning episodes ([2]; within 3 weeks after infusion, before: 1-2 times/week) was “No spinning episodes”. The toilet training ([2]; within 3 weeks after infusion, before: diapers only) was “Completely potty trained”, the “eye contact, share of the time” value ([2]; within 3 weeks after infusion, before: minimal eye contact) was “Eye contact 75% of the time” and the “connections made between language and objects” value ([2]; within 3 weeks after infusion, before: no apparent connections) was “Many connections made between”. For the same substance, the words spoken ([2]; within 3 weeks after infusion, before: two words) was 100's of words-will repeat some, the interaction with videos ([2]; within 3 weeks after infusion, before: watch videos) was “Now, gets “involved” interactively” and the water consumption ([2]; within 3 weeks after infusion, no change, before: approximately 50 cups per day) was “change approximately 50 cups per cups per day”. For the same substance, the “chronic abnormal bowel movements” value ([2]; within days after administration, no change in diet) was “became normal” and the “abnormal opioid peptides after secretin infusion” value [3] was “the peptides disappeared”.
